Literature values, collected in paper PMC9099121, “Population pharmacokinetic and exposure‐response analyses from ALTA‐1L: Model‐based analyses supporting the brigatinib dose in ALK‐positive NSCLC” (Clinical and Translational Science, 2022).

Test system: ALK-rearranged advanced NSCLC
Parameters: method as in PMID 31020351
Conditions: time-dependent exposure metric; 95% CI: 0.92–1.17; nonsignificant; cited from earlier work

Cc1cc(Nc2ncc(Cl)c(Nc3ccccc3S(=O)(=O)C(C)C)n2)c(OC(C)C)cc1C1CCNCC1 [ceritinib]
HR, exposure versus risk of disease progression: 1.04
